Read-outs that look alike come from different tables or passages of the source. Square brackets hold non-standard residues; d marks the D form. Ends that are not written are not given here. Nle = CCCC[C@H](N)C(=O)O
Columns and labels:
[1] = tested on: rabbit polyclonal antiserum to the 38-57 loop peptide; test: Competition radioimmunoassay with rabbit polyclonal antiserum to the 38-57 loop peptide; assay type: binding
Method: In the preceding examples, the studied available smallest peptide highly reactive to H-18 MAB was the 40-52 residue peptide and therefore, it was contemplated that the entire epitope resided within this sequence. By the procedures described in earlier examples for other peptides, peptides representing 50-52, 49-52, 48-52, 47-52, 46-52, 45-52, 44-52, 43-52, 42-52, and 41-52 were prepared and tested for reactivity with H-18 MAB and a rabbit polyclonal antiserum to the 38-57 loop peptide.
By earlier described procedures for other peptide preparations, peptides 43-45, 43-46, 43-48, 43-49, 43-50, and 43-51 were prepared to define the C-terminal boundary of the H-18 MAB epitope and to determine whether polyclonal antisera to the 38-57 loop reacted to sequences beyond the H-18 boundary. […] This latter immunogenicity could involve N-terminal residues 41 and 42 and the C-terminal residue 51.
Peptides with amino acid substitutions in the 43-50 sequence were unreactive.

[2] = tested on: HCG; test: Antibodies bound to HCG raised by conjugated 38-57 loop analogs and reference conjugates (Example XLIV); assay type: in vivo, human; conditions: for antibodies bound to HCG: mean peak binding of the antisera
Method: (§1) In an effort to obtain improved results over the analogs described in my earlier Example XLIII, further synthetic analogs of the unsubstituted 38-57 amino acid sequence of βHCG were prepared and evaluated in a similar manner as set forth in the prior examples. These analogs were provided with a disulfide bridge linking their 38 Cys and 57 Cys to form a loop and included the amino acid residue Ala (Pro)6 on the N-terminus as described earlier herein.
(§2) Table 33 illustrates nine analogs of the 38-57 loop peptide of βHCG with a varying number of amino acid substitutions in the positions outside the conceived 43-50 epitope sequence.
(§3) The antibodies values are expressed herein are as namomoles bound/L unless otherwise stated.

[3] = tested on: pituitary HLH; test: Antibodies bound to pituitary HLH raised by conjugated 38-57 loop analogs and reference conjugates (Example XLIV); assay type: in vivo, human; conditions: mean peak binding of the antisera
Method: as §1, §2, §3

[4] = tested on: female baboons; test: Fertility rates (matings and pregnancies) of immunized female baboons; assay type: in vivo, baboon; conditions: for Fertility Rate (%) / No. Pregnant: female baboons
[5] = tested on: female baboons
[6] = tested on: progesterone; conditions: female baboons
[7] = post-immunization menstrual cycle 1
[8] = post-immunization menstrual cycle 2
[9] = post-immunization menstrual cycle 3
[10] = post-immunization menstrual cycle 4
[11] = post-immunization menstrual cycle 5
[12] = pre-immunization menstrual cycle −1
[13] = pre-immunization menstrual cycle −2
[14] = pre-immunization menstrual cycle −3

Substance: CPTMTRVLQGVLPALPQVVC (cysteine pairing not given here) [Structure (XXVII)]
- antibodies against the peptide not directed to the 43-50 region [1]: about 5%

Substance: CPT[Nle]DRVLQGVLPAVPQVVC (cysteine pairing not given here) [analog number 2]
- HCG antibodies bound, of those using the conjugated unsubstituted 38-57 loop sequence ([2]; in vivo): about 75%
- antibodies bound to HCG [2]: 420 nanomoles bound/L
- antibodies bound to pituitary HLH [3]: 13 nanomoles bound/L

Substance: conjugate including the βHCG 109-145 amino acid sequence: conjugate of the βHCG 109-145 sequence tested in Example XLIV (TCDDPRFQDSSSSKAPPPSLPSPSRLPGPSDTPILPQ; also: conjugated to carrier; UniProt P0DN86 129-165, looked up, fragment)
- antibodies bound to HCG [2]: 1240 nanomoles bound/L
- antibodies bound to pituitary HLH [3]: 0 nanomoles bound/L

Substance: diphtheria toxoid
- Fertility Rate ([4]; Example XXXV, all matings of three mating cycles, CGP 11637, Squalene/Arlacel A): 70%
- Fertility Rate (%) ([4]; mating cycle 1): 73.3%
- No. Pregnant ([4]; mating cycle 1): 11
- Fertility Rate (%) ([4]; mating cycle 2): 75.0%
- No. Pregnant ([4]; mating cycle 2): 3
- Fertility Rate (%) ([4]; mating cycle 3): 0%
- No. Pregnant ([4]; mating cycle 3): 0
- Fertility Rate (%) ([4]; totals of mating cycles 1-3): 70.0%
- No. Pregnant ([4]; totals of mating cycles 1-3): 14
- pregnancies in total ([4]; in vivo): 14
- Cycle Length (days), Mean [5, 7]: 32.7 days
- Cycle Length (days), Mean [5, 8]: 33.1 days
- Cycle Length (days), Mean [5, 9]: 34.0 days
- Cycle Length (days), Mean [5, 10]: 30.0 days
- Cycle Length (days), Mean [5, 11]: 31.0 days
- Cycle Length (days), Mean [5, 12]: 33.2 days
- Cycle Length (days), Mean [5, 13]: 33.5 days
- Cycle Length (days), Mean [5, 14]: 34.4 days
- Luteal phase Progesterone (ng/ml), Mean [6, 7]: 4.3 ng/mL
- Luteal phase Progesterone (ng/ml), Mean [6, 8]: 6.0 ng/mL
- Luteal phase Progesterone (ng/ml), Mean [6, 9]: 7.0 ng/mL
- Luteal phase Progesterone (ng/ml), Mean [6, 10]: 5.9 ng/mL
- Luteal phase Progesterone (ng/ml), Mean [6, 11]: 6.0 ng/mL
- Luteal phase Progesterone (ng/ml), Mean [6, 12]: 6.0 ng/mL
- Luteal phase Progesterone (ng/ml), Mean [6, 13]: 6.8 ng/mL
- Luteal phase Progesterone (ng/ml), Mean [6, 14]: 6.9 ng/mL
